Test in all cases: inhibition of tumour cell growth, NCI panel, 48 h
Experiment [1] concerns A549 NSCLC.
Experiment [2] deals with BT-549 breast.
In experiment [3] the test system is CAKI-1 renal.
Experiment [4] relates to CCRF-CEM leukemia.
The subject of experiment [5] is EKVX NSCLC.
In experiment [6] the test system is M14 melanoma.
In experiment [7] the test system is MALME-3M melanoma.
Experiment [8] deals with MDA-MB-435.
The test system of experiment [9] is MDA-N.
Experiment [10] deals with NCI/ADR-RES ovarian.
Experiment [11] concerns SK-MEL-2 melanoma.
Experiment [12] has as its system SW-620 colon.
Experiment [13] deals with HOP-92 NSCLC.
Experiment [14] relates to HS 578T breast.

Values joined by “and” are separate entries in the source; they are usually repeats but may differ in a detail not shown here. Equal values may be shown once.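 Step 1: Grow cells in 96-well plates. Step 2: Expose to compound for 48 hours at 5 concentrations. Step 3: Interpolate endpoints linearly; if unreached, use highest concentration. Here, GI50 denotes the concentration required for 50% inhibition of growth. At the TGI there is no net growth.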 Where a SMILES comes first, the peptide text is derived from it. The star is where a group is joined. Boc = CC(C)(C)OC(=O)*; nBu = CCCC*

As for `C[C@@H]1CC[C@@H]2[C@@H](C1)O[C@@H]([C@@H](C)OCc1ccccc1)SC2(C)C`, the TGI in experiment [1] stood at 83.4 µM; in experiment [2], 42.6 µM; in experiment [3], 29 µM; in [4], 34.5 µM; in experiment [5], 67.4 µM; in experiment [6], 37.7 µM. For the same molecule, the TGI worked out at 37.9 µM in [7]; 35.8 µM in [8]; 36.3 µM in experiment [9]; 40.2 µM in experiment [10]; 31 µM in experiment [11]; 34 µM in experiment [12].
For the molecule `C#C[C@]1(O)CC[C@H]2[C@@H]3CCc4cc(O)ccc4[C@H]3CC[C@@]21C`, the TGI in [1] is over 100 µM; in experiment [3], over 100 µM; in experiment [4], over 100 µM; in experiment [5] it was over 100 µM; in [13], 95 µM; in experiment [7], over 100 µM. Moreover, the figures for the TGI in [11] and in [12] were 82.9 µM and over 100 µM, respectively.
For `CC(Oc1ccc(Cl)cc1Cl)C(=O)NN1C(=O)CC(=O)N(c2ccccc2)C1=S` (centres undefined), the TGI in [1] was over 100 µM; in experiment [2], over 100 µM; in experiment [3], over 100 µM; in [5], over 100 µM; in [13], 84 µM; in experiment [14] it was over 100 µM. The TGI in experiment [6], in experiment [7], in experiment [8], in [10], in experiment [11] and in experiment [12] was over 100 µM each time.
Take `COc1ccc(CCn2cncn2)cc1`: the TGI in experiment [1], in experiment [4], in [5], in [13], in experiment [6] and in [12] was over 100 µM in each case.
Turning to `COc1ccccc1-c1c(C#N)c(N)[nH]c(=S)c1C#N`, the TGI in experiment [1], in experiment [2], in experiment [3], in experiment [5], in experiment [13] and in experiment [14] was over 100 µM throughout. Further, the TGI in experiment [6] was over 100 µM; in [7] it was over 100 µM; in experiment [8], over 100 µM; in experiment [9], 67.1 µM; in [10], over 100 µM; in experiment [11], over 100 µM. In experiment [12], this molecule gave a TGI of over 100 µM.
Turning to `COc1ccc2nc3cc(Cl)ccc3c(NCCCN3CCN(CCCNc4ccc5nnn6c7ccccc7c(=O)c4c56)CC3)c2c1`, the TGI in experiment [1] was over 25 µM; in [2], over 14.8 µM; in experiment [3] it was over 15.8 µM; in [4], over 25 µM; in experiment [5] it was over 25 µM; in experiment [13] it was over 25 µM. Moreover, the TGI in [14], in experiment [6], in [8], in experiment [9], in experiment [10] and in experiment [11] was over 25 µM in each case. The same molecule displayed a TGI in experiment [12] of over 25 µM.
On to `CCCCOc1ccc(CC(NC(=O)OC(C)(C)C)C(=O)NC(C)C(=O)NC(Cc2ccccc2)C(=O)NCC(N)=O)cc1` (centres undefined) (Boc-Y(nBu)AFG-NH2; configuration not given here), for which the TGI in experiment [1], in [2], in experiment [3], in [4], in [13] and in [14] was over 100 µM each time. Further, the TGI is over 100 µM in [6]; over 100 µM in [7]; over 100 µM in [8]; over 100 µM in experiment [9]; over 100 µM in experiment [10]; 51 µM in [11]. The molecule further came in with a TGI in experiment [12] of over 100 µM.
As to `O=c1c2cc(O)ccc2n2nnc3ccc(NCCNCCO)c1c32`, the GI50 in experiment [1] was 22.9 µM and 5.95 µM; in experiment [4] it was 1.73 µM and 0.501 µM; in [6], 11.9 µM and 5.64 µM; in [7] it was 6.02 µM and 2.56 µM; in experiment [11], 9.4 µM and 4.34 µM; in [12], 5.16 µM and 1.55 µM. Also, the TGI in experiment [1] was > 100 µM and 28.9 µM; in experiment [3], 43 µM and > 61.9 µM; in [4] it was > 36.6 µM and 10.6 µM; in experiment [5], 97 µM and 48.1 µM; in experiment [13], 16.5 µM and 12.9 µM; in [6] it was 31.2 µM and 17.9 µM. In addition, the TGI in [7] was 20.5 µM and 11.5 µM; in [11], 23.5 µM and 13.5 µM; in experiment [12], > 88.5 µM and 14.8 µM.
For `C/C(C=O)=C/[C@@]1(C)O[C@@H](C)[C@@](C)(O)[C@@H]1O`, the TGI is over 100 µM in experiment [1]; 37.1 µM in experiment [3]; over 100 µM in experiment [4]; over 100 µM in experiment [5]; over 100 µM in experiment [13]; over 100 µM in experiment [14]. Besides, the TGI in [6] is over 100 µM; in experiment [7] it was over 100 µM; in experiment [8], over 100 µM; in experiment [9], over 100 µM; in experiment [10], 56.1 µM; in experiment [11], over 100 µM. In addition, the TGI in experiment [12] is over 100 µM.
With `CCc1n[nH]c(=O)n1/N=C(\C)c1ccccc1`, the TGI in experiment [1], in [2], in experiment [3], in experiment [4], in experiment [5] and in experiment [14] was over 100 µM in each case. For the same molecule, the TGI in [6], in [7], in experiment [8], in [9], in [10] and in experiment [11] was over 100 µM throughout. The molecule further showed a TGI in [12] of over 100 µM.
With `COc1cc(C2S/C(=C/c3ccccc3)C(=O)N2c2cccc(NC(C)=O)c2)cc(OC)c1OC` (centres undefined), the TGI in experiment [1] was over 100 µM; in experiment [2], over 100 µM; in [3] it was over 100 µM; in [4] it was over 100 µM; in experiment [5] it was 53.2 µM; in experiment [13], 85.7 µM. The TGI was 60.7 µM in experiment [14]; over 100 µM in experiment [6]; 98.3 µM in experiment [7]; 47.2 µM in experiment [8]; over 100 µM in experiment [9]; over 100 µM in [10].
For `CC(Oc1ccccc1Cl)C(=O)NN1C(=O)CC(=O)N(c2ccc(Cl)cc2)C1=S` (centres undefined), the TGI in experiment [1] is over 100 µM; in experiment [2] it was over 100 µM; in experiment [3], over 100 µM; in [5], over 100 µM; in [13] it was 63.2 µM; in [14] it was over 100 µM. The TGI in [6] is over 100 µM; in [7], over 100 µM; in [8], over 100 µM; in [9], over 100 µM; in experiment [10] it was over 100 µM; in [11] it was 98.2 µM. The same molecule gave a TGI in [12] of over 100 µM.
With `O=[N+]([O-])c1ccc(N=Nc2c(O)[nH]c3ccccc23)c([N+](=O)[O-])c1`, the TGI is 28 µM in [1]; 34.1 µM in experiment [2]; 43.9 µM in experiment [3]; over 100 µM in experiment [4]; 20.7 µM in experiment [5]; 12.5 µM in experiment [13]. The TGI in experiment [14] is over 100 µM; in experiment [6], over 100 µM; in experiment [8], over 100 µM; in [9], over 100 µM; in experiment [10], 59.9 µM; in experiment [12], over 100 µM.
As for `CC1(C)OC[C@@H]([C@@]2(COC(c3ccccc3)(c3ccccc3)c3ccccc3)CC=CC(=O)O2)O1`, the TGI in [1] was over 100 µM; in experiment [2] it was 74.4 µM; in experiment [3], over 100 µM; in [4] it was 96.7 µM; in experiment [5], 83.8 µM; in experiment [13] it was 92.1 µM. The TGI was over 100 µM in [14]; over 100 µM in experiment [6]; over 100 µM in experiment [7]; over 100 µM in experiment [8]; 31.1 µM in [11]; over 100 µM in experiment [12].
For `O=C(Nc1ccccc1)Oc1ccc(C(=S)Nc2ccc(Br)cc2)cc1`, the TGI was 36.6 µM in experiment [2]; 41 µM in experiment [3]; 28.5 µM in experiment [4]; 31.1 µM in [5]; over 100 µM in experiment [14]; 65.1 µM in experiment [7]. The TGI in [8] was 39.7 µM; in [9], 47.2 µM; in experiment [10], 39.7 µM; in [11], 47.8 µM; in [12] it was over 100 µM.
With `CC(=O)c1ccc(Nc2c3ccccc3nc3occc23)cc1`, the TGI in experiment [1] is over 35.1 µM; in [2], over 100 µM; in experiment [3], 4.68 µM; in experiment [4] it was 4.46 µM; in experiment [5], over 45.9 µM; in experiment [13], 83.5 µM. For the same molecule, the TGI in [6] was 2.92 µM; in experiment [7], 29.4 µM; in experiment [8], under 0.01 µM; in experiment [9] it was under 0.01 µM; in [11], 0.0645 µM; in [12], over 100 µM.
For the molecule `N#C/C(=C(/O)CCl)c1nc2ccccc2o1`, the TGI was 34.8 µM in [1]; 5.01 µM in experiment [2]; 22.6 µM in experiment [3]; 90.7 µM in [4]; 14.5 µM in experiment [13]; over 100 µM in [14]. In addition, the TGI in experiment [6] was determined as 21 µM; in experiment [7] it was 29.1 µM; in experiment [8] it was 10.8 µM; in experiment [9], 15.8 µM; in [10], 5.4 µM; in experiment [11] it was 11.6 µM. For the same molecule, in [12], the TGI was over 100 µM.
On to `O=P(NCCCO)(OCc1ccccc1)N(CCCl)CCCl` (centres undefined), for which the TGI in experiment [1], in [3], in [4], in experiment [13], in experiment [7] and in experiment [10] was over 100 µM throughout. For the same molecule, the TGI in experiment [11] and in experiment [12] was over 100 µM throughout.
As to `COc1ccc(N2C(=O)C(=O)C3(CCCCC3)C2=O)c2ccccc12`, the TGI in experiment [1], in [3], in experiment [4], in experiment [5], in experiment [14] and in [6] was over 10 µM throughout. The TGI in experiment [7], in [8], in experiment [9], in experiment [10], in experiment [11] and in [12] was over 10 µM each time.
As for `COC(=O)c1c(O)ccc2c1c1cc3ccccc3c(O)c1n2CCc1ccc(OC)c(OC)c1`, the TGI in [1], in experiment [2], in [3], in experiment [4], in experiment [5] and in experiment [13] was over 100 µM throughout. Further, the TGI in experiment [14], in [6], in experiment [7], in experiment [8], in [9] and in [10] was over 100 µM in each case. In experiment [11], this molecule displayed a TGI of over 100 µM.
As to `COc1ccc(C2C3CCc4ccccc4C3=NN2S(=O)(=O)c2cccc(C(=O)O)c2OC)cc1` (centres undefined), the TGI was over 100 µM in experiment [1]; over 100 µM in [2]; over 100 µM in experiment [3]; 81.7 µM in [4]; over 100 µM in [5]; over 100 µM in experiment [13]. Moreover, the TGI in [6] is over 100 µM; in experiment [7] it was over 100 µM; in [8] it was 4.15 µM; in experiment [9], 7.25 µM; in experiment [10] it was 11.7 µM; in experiment [11], 60 µM. The TGI in experiment [12] is over 100 µM.

Values taken from PubChem BioAssay (NCI).
